Laboratory results as given in patent publication US20200239530A1, “COMPOUNDS AND METHODS OF MODULATING PROTEIN DEGRADATION” (Vividion Therapeutics, Inc., priority 2017, published 2020).
Read-outs that look alike come from different tables or passages of the source.

Experiments:
Assay in all cases: Cysteine liganding, probe competition
Type in all cases: binding
UniProt O14544 = molecular target: T1, UniProt O14544 (Homo sapiens, UniProt O14544); conditions: for inhibition at 100 µM: read-out: percent_inhibition
T1 construct: 200 μL of lysate containing 5 mg/ml proteome was treated with 2 μL of 100× compound stock; endogenous in cells
T1 sequence (O14544 1-535): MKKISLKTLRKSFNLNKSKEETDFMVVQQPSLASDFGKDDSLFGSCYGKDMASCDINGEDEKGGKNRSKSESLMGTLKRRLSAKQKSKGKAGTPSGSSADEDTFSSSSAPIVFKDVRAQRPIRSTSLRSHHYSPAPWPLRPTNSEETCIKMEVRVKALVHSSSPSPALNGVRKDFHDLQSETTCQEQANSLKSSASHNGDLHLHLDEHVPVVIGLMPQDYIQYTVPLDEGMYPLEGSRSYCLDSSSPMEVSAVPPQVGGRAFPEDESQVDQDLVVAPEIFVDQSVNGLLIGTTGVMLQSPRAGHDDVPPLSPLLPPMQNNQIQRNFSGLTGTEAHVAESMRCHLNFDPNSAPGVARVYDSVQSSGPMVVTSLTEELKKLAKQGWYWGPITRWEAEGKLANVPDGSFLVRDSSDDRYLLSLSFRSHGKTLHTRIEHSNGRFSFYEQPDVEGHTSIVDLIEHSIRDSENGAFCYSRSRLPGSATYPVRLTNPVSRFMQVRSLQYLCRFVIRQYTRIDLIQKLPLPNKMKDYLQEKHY
From the text: (§1) The following 96-well sample prep protocol was used for sample preparation.

UniProt Q5W0B1 = molecular target: T2, UniProt Q5W0B1 (Homo sapiens, UniProt Q5W0B1)
T2 construct: 200 μL of lysate containing 5 mg/ml proteome was treated with 2 μL of 100× compound stock; endogenous in cells
T2 sequence (Q5W0B1 1-726): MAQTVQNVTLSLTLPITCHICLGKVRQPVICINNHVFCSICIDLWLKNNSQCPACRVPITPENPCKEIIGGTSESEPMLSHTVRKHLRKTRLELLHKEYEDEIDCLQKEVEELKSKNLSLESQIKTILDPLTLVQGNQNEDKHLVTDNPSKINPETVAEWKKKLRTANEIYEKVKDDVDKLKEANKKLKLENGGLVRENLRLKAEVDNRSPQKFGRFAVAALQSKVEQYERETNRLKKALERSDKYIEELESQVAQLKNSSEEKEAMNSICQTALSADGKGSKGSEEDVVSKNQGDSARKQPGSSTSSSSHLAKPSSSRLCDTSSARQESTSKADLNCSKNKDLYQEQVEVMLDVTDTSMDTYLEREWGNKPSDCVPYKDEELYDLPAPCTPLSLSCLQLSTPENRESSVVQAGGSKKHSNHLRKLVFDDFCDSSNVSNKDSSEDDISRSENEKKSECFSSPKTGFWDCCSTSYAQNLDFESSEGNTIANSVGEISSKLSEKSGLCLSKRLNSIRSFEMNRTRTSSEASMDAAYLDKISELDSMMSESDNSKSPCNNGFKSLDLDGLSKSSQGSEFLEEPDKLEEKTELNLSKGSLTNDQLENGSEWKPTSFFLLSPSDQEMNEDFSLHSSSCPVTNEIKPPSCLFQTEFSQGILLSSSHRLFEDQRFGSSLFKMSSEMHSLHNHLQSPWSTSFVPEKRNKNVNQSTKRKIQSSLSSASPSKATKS
From the text: as §1

UniProt Q7Z3V4 = molecular target: T3, UniProt Q7Z3V4 (Homo sapiens, UniProt Q7Z3V4)
T3 construct: 200 μL of lysate containing 5 mg/ml proteome was treated with 2 μL of 100× compound stock; endogenous in cells
T3 sequence (Q7Z3V4 1-1068): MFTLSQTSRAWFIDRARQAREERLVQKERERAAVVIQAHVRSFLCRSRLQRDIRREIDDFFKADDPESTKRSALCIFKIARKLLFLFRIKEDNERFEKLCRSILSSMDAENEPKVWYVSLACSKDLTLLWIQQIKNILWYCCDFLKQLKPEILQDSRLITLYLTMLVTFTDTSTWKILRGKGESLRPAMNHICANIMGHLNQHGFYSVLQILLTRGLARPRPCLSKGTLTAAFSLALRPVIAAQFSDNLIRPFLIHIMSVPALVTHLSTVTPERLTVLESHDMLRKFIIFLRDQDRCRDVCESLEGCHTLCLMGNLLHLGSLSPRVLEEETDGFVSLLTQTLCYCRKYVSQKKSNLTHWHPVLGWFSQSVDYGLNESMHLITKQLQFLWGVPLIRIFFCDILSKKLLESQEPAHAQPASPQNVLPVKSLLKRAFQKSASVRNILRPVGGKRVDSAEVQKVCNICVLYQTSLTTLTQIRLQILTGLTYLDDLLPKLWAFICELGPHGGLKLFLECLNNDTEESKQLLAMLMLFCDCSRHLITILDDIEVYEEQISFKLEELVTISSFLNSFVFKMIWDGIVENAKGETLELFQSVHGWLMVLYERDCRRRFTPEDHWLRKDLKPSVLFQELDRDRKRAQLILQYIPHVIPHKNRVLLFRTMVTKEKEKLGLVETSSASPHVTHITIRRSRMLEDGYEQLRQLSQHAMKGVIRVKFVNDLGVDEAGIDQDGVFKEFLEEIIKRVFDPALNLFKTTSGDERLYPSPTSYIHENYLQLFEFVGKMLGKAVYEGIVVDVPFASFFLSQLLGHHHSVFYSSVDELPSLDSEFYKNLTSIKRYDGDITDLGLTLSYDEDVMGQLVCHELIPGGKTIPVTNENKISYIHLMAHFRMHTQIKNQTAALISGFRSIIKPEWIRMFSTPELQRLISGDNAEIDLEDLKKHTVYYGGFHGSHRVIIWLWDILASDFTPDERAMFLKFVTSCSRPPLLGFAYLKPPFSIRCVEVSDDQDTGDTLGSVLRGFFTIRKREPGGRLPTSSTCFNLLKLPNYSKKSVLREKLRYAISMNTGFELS
From the text: as §1

UniProt Q96G25 = molecular target: T4, UniProt Q96G25 (Homo sapiens, UniProt Q96G25)
T4 construct: Cells were resuspended in cold PBS on ice and sonicated with a probe sonicator to achieve lysis; endogenous in cells
T4 sequence (Q96G25 1-268): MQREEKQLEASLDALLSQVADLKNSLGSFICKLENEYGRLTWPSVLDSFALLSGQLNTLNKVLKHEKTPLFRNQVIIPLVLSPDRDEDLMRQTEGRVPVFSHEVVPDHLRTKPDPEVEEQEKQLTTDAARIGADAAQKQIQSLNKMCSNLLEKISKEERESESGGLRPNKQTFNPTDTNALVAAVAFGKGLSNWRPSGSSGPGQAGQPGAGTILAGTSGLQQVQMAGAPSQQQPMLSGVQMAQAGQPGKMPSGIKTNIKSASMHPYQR
From the text: as §1

UniProt Q9BUL5 = molecular target: T5, UniProt Q9BUL5 (Homo sapiens, UniProt Q9BUL5)
T5 construct: 200 μL of lysate containing 5 mg/ml proteome was treated with 2 μL of 100× compound stock; endogenous in cells
From the text: as §1

[1] = 500 uM, read-out: percent_inhibition
[2] = 100 uM, read-out: KB02_100 uM_percent_inhibition
[3] = 100 uM, read-out: percent inhibition
[4] = 100 uM, read-out: KB05_100 uM_percent_inhibition
[5] = 500 uM, read-out: KB05_500 uM_percent_inhibition

T5 sequence (Q9BUL5 whole entry, change not shown): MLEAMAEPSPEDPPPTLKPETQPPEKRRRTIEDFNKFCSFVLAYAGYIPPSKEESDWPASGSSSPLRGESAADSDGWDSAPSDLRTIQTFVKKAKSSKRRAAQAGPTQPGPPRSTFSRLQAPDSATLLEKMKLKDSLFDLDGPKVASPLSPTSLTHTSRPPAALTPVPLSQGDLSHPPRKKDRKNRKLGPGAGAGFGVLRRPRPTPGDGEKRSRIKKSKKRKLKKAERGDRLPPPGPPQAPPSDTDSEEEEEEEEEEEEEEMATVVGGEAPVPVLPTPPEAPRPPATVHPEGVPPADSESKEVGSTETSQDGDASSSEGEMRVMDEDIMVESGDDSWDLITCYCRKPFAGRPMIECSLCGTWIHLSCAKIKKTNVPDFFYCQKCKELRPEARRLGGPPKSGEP

Row | Structure (SMILES) | inhibition at 100 µM (UniProt O14544) | inhibition at 100 µM (UniProt Q5W0B1; 100 uM, read-out: percent_inhibition) | inhibition at 500 µM (UniProt Q5W0B1; [1]) | inhibition at 100 µM (UniProt Q7Z3V4; [2]) | inhibition at 500 µM (UniProt Q7Z3V4; 500 uM, read-out: KB02_500 uM_percent_inhibition) | percent inhibition (UniProt Q96G25; 100 uM) | inhibition at 100 µM (UniProt Q96G25; [3]) | inhibition at 100 µM (UniProt Q9BUL5; [2]) | inhibition at 100 µM (UniProt Q7Z3V4; [4]) | inhibition at 500 µM (UniProt Q7Z3V4; [5]) | percent inhibition (UniProt Q96G25; 500 uM) | inhibition at 500 µM (UniProt Q96G25; 500 uM, read-out: percent inhibition) | inhibition at 100 µM (UniProt Q9BUL5; [4]) | KB05_500 uM_percent_inhibition (UniProt Q9BUL5; 500 uM) | inhibition at 500 µM (UniProt Q9BUL5; [5]) | percent_inhibition (UniProt O14544; 100 uM) | percent_inhibition (UniProt Q5W0B1; 500 uM) | KB03_100 uM_percent_inhibition (UniProt Q7Z3V4; 100 uM) | KB03_500 uM_percent_inhibition (UniProt Q7Z3V4; 500 uM) | KB03_100 uM_percent_inhibition (UniProt Q9BUL5; 100 uM)
1 | COc1ccc2c(c1)CCCN2C(=O)CCl [KB02] | 35% | 17% | 54% | 42% | 86% | 31% | 29% | 13% | – | – | – | – | – | – | – | – | – | – | – | –
2 | C=CC(=O)N(c1ccccc1)c1ccc(Br)cc1 [KB05] | 59% | – | 48% | – | – | – | 10% | – | 8% | 64% | 40% | 31% | 29% | 30% | 27% | – | – | – | – | –
3 | O=C(CCl)Nc1cc(C(F)(F)F)cc(C(F)(F)F)c1 [KBO3] | – | – | – | – | – | 8% | – | – | – | – | – | – | – | – | – | 83% | 28% | 33% | 56% | 16%
